Melting point data for 6 molecules are collected here from US20020031816A1, “METHOD OF INHIBITION OF HUMAN GLYCOGEN PHOSPHORYLASE” (priority 1998, published 2002).

Take `CCN1C(=O)C(C(=O)Nc2cccc(C(=O)NC3CCCCC3)c2)c2cc(C(C)=O)ccc21` (stereo not drawn) [Preparation 2, 5-Acetyl-1-ethyl-2-oxo-2,3-dihydro-1H-indole-3-carboxylic acid (3-cyclohexylcarbamoyl-phenyl)-amide]: the melting point is 180 °C (dec.).

On to `CCN1C(=O)C(C(=O)Nc2cccc(C(=O)Nc3ccc(Cl)cc3)c2)c2cc(C(C)=O)ccc21` (stereo not drawn) [Preparation 3, 5-Acetyl-1-ethyl-2-oxo-2,3-dihydro-1H-indole-3-carboxylic acid [3-(4-chloro-phenylcarbamoyl)-phenyl]-amide], for which the melting point was 119 to 121 °C.

Molecule `CCN1C(=O)C(C(=O)Nc2cccc(C(=O)Nc3ccc(Br)cc3)c2)c2cc(C(C)=O)ccc21` (stereo not drawn) [Preparation 8, 5-Acetyl-1-ethyl-2-oxo-2,3-dihydro-1H-indole-3-carboxylic acid [3-(4-bromo-phenylcarbamoyl)-phenyl]-amide] gave a melting point of 117 to 120 °C.

Molecule `CCN1C(=O)C(C(=O)Nc2cccc(C(=O)Nc3ccc(I)cc3)c2)c2cc(C(C)=O)ccc21` (stereo not drawn) [Preparation 9, 5-Acetyl-1-ethyl-2-oxo-2,3-dihydro-1H-indole-3-carboxylic acid [3-(4-iodo-phenylcarbamoyl)-phenyl]-amide] returned a melting point of 205 to 210 °C.

`CCN1C(=O)C(C(=O)Nc2cccc(C(=O)Nc3ccccc3)c2)c2cc(C(=O)c3ccccc3)ccc21` (stereo not drawn) [Preparation 10, 5-Benzoyl-1-ethyl-2-oxo-2,3-dihydro-1H-indole-3-carboxylic acid (3-phenylcarbamoyl-phenyl)-amide] returned a melting point of 129 to 135 °C.

Molecule `CC(=O)c1ccc2c(c1)C(C(=O)Nc1cccc(C(=O)Nc3ccccc3)c1)C(=O)N2C` (stereo not drawn) [Preparation 12, 5-Acetyl-1-methyl-2-oxo-2,3-dihydro-1H-indole-3-carboxylic acid (3-phenylcarbamoyl-phenyl)-amide] had a melting point of 178 to 179 °C.
